Converted amounts (≈) assume the structure as drawn.
Columns and labels:
[1] = target: Phosphatidylinositol 4,5-bisphosphate 3-kinase catalytic subunit beta isoform (Homo sapiens, UniProt P42338); assay: Inhibition of recombinant human N-terminal Myr signal and C-terminal Flag-tagged PI3K p110beta expressed in rat Rat1 cells; format: cell-based
[2] = target: PI3-kinase p110-delta/p85-alpha (Homo sapiens, UniProt O00329); assay: Inhibition of recombinant human PI3K p110delta/p85alpha using phosphatidylinositol 4,5-bisphosphate as substrate preincubated for 15 mins followed by addition of ATP and measured after 30 mins by fluorescence polarisation assay; format: protein-complex assay
[3] = Kinetic solubility of compound; format: physicochemical; settings: read-out: Kinetic_solubility
PI3K p110 beta/p85 alpha = PI3K p110 beta/p85 alpha (Homo sapiens, UniProt P42338); assay: Inhibition of recombinant human PI3K p110beta/p85alpha using phosphatidylinositol 4,5-bisphosphate as substrate preincubated for 15 mins followed by addition of ATP and measured after 30 mins by fluorescence polarisation assay; format: protein-complex assay
[4] = target: Phosphatidylinositol 4,5-bisphosphate 3-kinase catalytic subunit alpha isoform (Homo sapiens, UniProt P42336); assay: Inhibition of recombinant human N-terminal Myr signal and C-terminal Flag-tagged PI3K p110alpha expressed in rat Rat1 cells; format: cell-based
[5] = Apparent intrinsic clearance in human liver microsomes; format: ADME, Microsome; settings: read-out: CLH(app)
[6] = Passive permeability of compound in RRCK cells; format: ADME, cell-based, Canis lupus familiaris, MDCKII-LE; settings: dog, MDCK; read-out: permeability
[7] = Distribution coefficient, logD of compound at pH 7.4; format: physicochemical; settings: octanol/water
[8] = target: T1, Phosphatidylinositol 4,5-bisphosphate 3-kinase catalytic subunit delta isoform (Homo sapiens, UniProt O00329); assay: Inhibition of recombinant human N-terminal Myr signal and C-terminal Flag-tagged PI3K p110delta expressed in rat Rat1 cells; format: cell-based
T1 sequence (O00329 whole entry): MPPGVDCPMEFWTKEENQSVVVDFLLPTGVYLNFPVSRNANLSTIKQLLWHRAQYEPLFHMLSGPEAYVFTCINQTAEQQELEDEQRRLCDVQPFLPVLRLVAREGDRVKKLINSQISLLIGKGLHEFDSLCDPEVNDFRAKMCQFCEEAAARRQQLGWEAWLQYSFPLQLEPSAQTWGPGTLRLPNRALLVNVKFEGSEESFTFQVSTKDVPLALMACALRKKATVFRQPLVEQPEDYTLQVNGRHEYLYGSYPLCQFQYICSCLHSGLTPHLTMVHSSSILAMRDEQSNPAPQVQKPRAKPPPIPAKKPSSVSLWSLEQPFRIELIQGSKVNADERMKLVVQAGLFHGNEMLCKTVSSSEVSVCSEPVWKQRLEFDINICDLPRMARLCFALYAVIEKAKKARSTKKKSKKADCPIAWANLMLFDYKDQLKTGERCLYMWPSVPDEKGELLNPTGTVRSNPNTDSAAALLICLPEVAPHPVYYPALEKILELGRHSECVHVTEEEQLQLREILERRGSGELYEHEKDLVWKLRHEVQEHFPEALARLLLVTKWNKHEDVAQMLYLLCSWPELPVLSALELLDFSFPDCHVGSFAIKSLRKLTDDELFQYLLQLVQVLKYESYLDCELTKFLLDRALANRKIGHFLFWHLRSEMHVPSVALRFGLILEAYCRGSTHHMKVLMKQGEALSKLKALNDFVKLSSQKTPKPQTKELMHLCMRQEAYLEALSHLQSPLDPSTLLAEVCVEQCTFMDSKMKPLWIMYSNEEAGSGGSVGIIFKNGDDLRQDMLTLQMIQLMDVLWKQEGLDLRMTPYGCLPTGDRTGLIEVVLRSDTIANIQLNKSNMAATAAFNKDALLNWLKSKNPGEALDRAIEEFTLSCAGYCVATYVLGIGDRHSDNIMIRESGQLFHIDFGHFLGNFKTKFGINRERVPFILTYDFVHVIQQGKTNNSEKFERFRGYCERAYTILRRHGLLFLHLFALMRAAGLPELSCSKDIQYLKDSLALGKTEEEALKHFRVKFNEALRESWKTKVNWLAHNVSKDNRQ

[9] = target: PI3-kinase p110-alpha/p85-alpha (Homo sapiens, UniProt P42336); assay: Inhibition of recombinant human full-length PI3K p110alpha/p85alpha (322 to 600) expressed in baculovirus infected Sf21 cells using phosphatidylinositol 4,5-bisphosphate as substrate preincubated for 15 mins followed by addition of ATP and measured after 30 mins by fluorescence polarisation assay
PI3-kinase p110-alpha/p85-alpha, sequence (P27986 whole entry): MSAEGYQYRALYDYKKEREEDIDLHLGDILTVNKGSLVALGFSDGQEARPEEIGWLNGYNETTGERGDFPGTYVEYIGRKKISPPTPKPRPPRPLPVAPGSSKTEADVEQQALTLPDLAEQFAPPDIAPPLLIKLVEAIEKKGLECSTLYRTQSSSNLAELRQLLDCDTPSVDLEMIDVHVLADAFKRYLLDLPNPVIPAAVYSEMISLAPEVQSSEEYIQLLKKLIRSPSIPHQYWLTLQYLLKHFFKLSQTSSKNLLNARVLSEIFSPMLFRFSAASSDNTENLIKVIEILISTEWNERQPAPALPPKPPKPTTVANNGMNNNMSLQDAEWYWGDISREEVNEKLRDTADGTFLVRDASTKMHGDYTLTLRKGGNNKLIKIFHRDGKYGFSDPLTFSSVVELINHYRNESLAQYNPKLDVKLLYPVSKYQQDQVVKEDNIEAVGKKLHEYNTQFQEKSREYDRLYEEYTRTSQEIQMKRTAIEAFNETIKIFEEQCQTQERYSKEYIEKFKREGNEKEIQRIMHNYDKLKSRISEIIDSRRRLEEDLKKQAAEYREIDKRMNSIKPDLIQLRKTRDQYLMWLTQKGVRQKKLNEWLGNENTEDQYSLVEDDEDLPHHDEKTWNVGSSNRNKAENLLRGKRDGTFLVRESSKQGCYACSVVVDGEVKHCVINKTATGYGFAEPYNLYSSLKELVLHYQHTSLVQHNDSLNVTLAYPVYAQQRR
PI3-kinase p110-alpha/p85-alpha, sequence (P42336 whole entry): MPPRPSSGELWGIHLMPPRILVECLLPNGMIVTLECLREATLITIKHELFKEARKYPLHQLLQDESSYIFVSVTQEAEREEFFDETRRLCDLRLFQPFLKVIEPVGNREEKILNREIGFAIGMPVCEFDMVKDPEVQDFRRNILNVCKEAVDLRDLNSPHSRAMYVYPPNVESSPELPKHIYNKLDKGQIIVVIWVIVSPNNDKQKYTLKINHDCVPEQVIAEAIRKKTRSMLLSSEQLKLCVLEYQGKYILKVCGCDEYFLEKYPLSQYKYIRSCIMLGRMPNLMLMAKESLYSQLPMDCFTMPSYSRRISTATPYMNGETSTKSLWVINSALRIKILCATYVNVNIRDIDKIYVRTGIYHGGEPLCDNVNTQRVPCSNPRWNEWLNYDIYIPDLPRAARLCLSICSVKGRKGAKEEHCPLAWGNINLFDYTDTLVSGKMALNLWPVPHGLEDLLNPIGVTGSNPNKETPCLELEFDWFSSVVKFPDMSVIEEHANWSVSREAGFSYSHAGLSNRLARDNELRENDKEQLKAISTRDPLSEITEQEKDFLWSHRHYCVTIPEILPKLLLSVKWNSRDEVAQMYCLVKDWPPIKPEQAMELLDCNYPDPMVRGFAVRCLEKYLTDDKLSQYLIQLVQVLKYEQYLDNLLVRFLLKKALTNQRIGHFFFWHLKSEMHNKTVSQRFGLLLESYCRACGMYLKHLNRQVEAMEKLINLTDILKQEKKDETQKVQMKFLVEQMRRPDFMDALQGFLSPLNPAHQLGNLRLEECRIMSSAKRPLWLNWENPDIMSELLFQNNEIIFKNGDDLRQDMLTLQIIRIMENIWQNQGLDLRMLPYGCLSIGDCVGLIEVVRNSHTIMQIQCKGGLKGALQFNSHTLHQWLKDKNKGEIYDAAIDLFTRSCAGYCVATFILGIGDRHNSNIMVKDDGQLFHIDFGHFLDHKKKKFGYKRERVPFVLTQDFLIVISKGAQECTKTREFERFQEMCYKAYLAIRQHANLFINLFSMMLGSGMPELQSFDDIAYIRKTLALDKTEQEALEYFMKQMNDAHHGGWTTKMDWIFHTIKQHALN

Phosphatidylinositol 4,5-bisphosphate 3-kinase catalytic subunit alpha isoform, sequence (P42336 whole entry, canonical isoform): as the sequence (P42336 whole entry) above
Phosphatidylinositol 4,5-bisphosphate 3-kinase catalytic subunit beta isoform, sequence (P42338 whole entry, canonical isoform): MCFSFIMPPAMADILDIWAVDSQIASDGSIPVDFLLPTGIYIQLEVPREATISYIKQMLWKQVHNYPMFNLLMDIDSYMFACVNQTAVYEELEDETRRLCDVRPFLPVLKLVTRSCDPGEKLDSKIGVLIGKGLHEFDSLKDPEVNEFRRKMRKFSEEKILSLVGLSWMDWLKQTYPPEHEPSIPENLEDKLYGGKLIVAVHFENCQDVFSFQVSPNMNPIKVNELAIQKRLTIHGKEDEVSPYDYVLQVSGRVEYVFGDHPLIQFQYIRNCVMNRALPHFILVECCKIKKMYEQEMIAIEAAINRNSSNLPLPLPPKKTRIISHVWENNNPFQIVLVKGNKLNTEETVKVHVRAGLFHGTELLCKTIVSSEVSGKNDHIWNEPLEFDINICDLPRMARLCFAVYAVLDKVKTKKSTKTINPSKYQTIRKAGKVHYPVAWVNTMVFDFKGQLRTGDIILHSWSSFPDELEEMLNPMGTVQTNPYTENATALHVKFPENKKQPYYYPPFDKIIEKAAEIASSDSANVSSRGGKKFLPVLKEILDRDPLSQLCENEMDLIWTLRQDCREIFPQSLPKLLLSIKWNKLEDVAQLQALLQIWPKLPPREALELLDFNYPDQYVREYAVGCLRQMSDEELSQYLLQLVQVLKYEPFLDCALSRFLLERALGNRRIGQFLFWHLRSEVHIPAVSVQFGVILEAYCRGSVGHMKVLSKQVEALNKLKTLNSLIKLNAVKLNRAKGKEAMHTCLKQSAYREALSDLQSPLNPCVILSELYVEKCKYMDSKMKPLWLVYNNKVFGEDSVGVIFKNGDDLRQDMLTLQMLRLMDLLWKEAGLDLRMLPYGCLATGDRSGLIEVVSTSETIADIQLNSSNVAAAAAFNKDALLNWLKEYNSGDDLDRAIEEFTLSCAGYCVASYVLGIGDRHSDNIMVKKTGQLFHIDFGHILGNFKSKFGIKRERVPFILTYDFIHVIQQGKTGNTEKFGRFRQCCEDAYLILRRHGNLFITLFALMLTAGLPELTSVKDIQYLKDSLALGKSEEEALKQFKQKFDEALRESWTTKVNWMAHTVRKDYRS
PI3-kinase p110-delta/p85-alpha, sequence (P27986 whole entry, one chain of several): as the sequence (P27986 whole entry) above
PI3K p110 beta/p85 alpha, sequence (P27986 whole entry, canonical isoform): as the sequence (P27986 whole entry) above
PI3K p110 beta/p85 alpha, sequence (P42338 whole entry, canonical isoform): as the sequence (P42338 whole entry, canonical isoform) above

## Nc1ncc(-c2cc(N[C@@]3(CO)CCN(C(=O)OCC(F)F)C3)nc(N3CCOCC3)n2)cn1
[1]
  IC50: 1900 nM
[2]
  Ki: < 0.28 nM
[3]
  solubility kinetic: 9.9 µM (≈ 4.76 µg/mL)
PI3K p110 beta/p85 alpha
  Ki: 4 nM
[4]
  IC50: 52 nM
[5]
  microsomal CLint: 17 µL/min/mg
[6]
  Papp: 3.9 ×10⁻⁶ cm/s
[7]
  logD: 1.7
[8]
  IC50: 1000 nM

## CS(=O)(=O)N1CC[C@](CO)(Nc2cc(-c3cnc(N)nc3)nc(N3CCOCC3)n2)C1
[1]
  IC50: > 10000 nM
[2]
  Ki: < 0.28 nM
PI3K p110 beta/p85 alpha
  Ki: 11 nM
[4]
  IC50: 1300 nM
[5]
  microsomal CLint: < 8 µL/min/mg
[6]
  Papp: 0.22 ×10⁻⁶ cm/s
[7]
  logD: 0.79
[8]
  IC50: > 10000 nM

## CC(C)(C)OC(=O)N1CC[C@](CO)(Nc2cc(-c3cnc(N)nc3)nc(N3CCOCC3)n2)C1
[1]
  IC50: 4600 nM
[2]
  Ki: 2.1 nM
[3]
  solubility kinetic: 460 µM (≈ 217 µg/mL)
PI3K p110 beta/p85 alpha
  Ki: 54 nM
[5]
  microsomal CLint: 140 µL/min/mg
[6]
  Papp: 18 ×10⁻⁶ cm/s
[7]
  logD: 2.7
[8]
  IC50: 1200 nM

## C[C@]1(N2CCc3c(-c4cnc(N)nc4)nc(N4CCOCC4)nc32)CCN(S(C)(=O)=O)C1
[1]
  IC50: 150 nM
[9]
  Ki: < 0.029 nM
[2]
  Ki: 0.26 nM
[3]
  solubility kinetic: 540 µM (≈ 249 µg/mL)
PI3K p110 beta/p85 alpha
  Ki: 9.1 nM
[4]
  IC50: 34 nM
[5]
  microsomal CLint: 36 µL/min/mg
[6]
  Papp: 26 ×10⁻⁶ cm/s
[7]
  logD: 1.6
[8]
  IC50: 76 nM

## CNC(=O)N1CC[C@](C)(N2CCc3c(-c4cnc(N)nc4)nc(N4CCOCC4)nc32)C1
[1]
  IC50: 410 nM
[9]
  Ki: 0.084 nM
[2]
  Ki: 0.72 nM
[3]
  solubility kinetic: 460 µM (≈ 202 µg/mL)
PI3K p110 beta/p85 alpha
  Ki: 24 nM
[4]
  IC50: 73 nM
[5]
  microsomal CLint: < 11 µL/min/mg
[6]
  Papp: 13 ×10⁻⁶ cm/s
[7]
  logD: 1.7
[8]
  IC50: 110 nM

## CC(=O)N1CC[C@@](C)(N2CCc3c(-c4cnc(N)nc4)nc(N4CCOCC4)nc32)C1
[1]
  IC50: 95 nM
[9]
  Ki: 0.078 nM
[2]
  Ki: 1.2 nM
[3]
  solubility kinetic: 520 µM (≈ 221 µg/mL)
PI3K p110 beta/p85 alpha
  Ki: 6.7 nM
[4]
  IC50: 35 nM
[5]
  microsomal CLint: < 8 µL/min/mg
[6]
  Papp: 16 ×10⁻⁶ cm/s
[7]
  logD: 1.6
[8]
  IC50: 74 nM

## COC(=O)N1CC[C@](C)(N2CCc3c(-c4cnc(N)nc4)nc(N4CCOCC4)nc32)C1
[1]
  IC50: 45 nM
[9]
  Ki: < 0.023 nM
[2]
  Ki: < 0.28 nM
[3]
  solubility kinetic: 490 µM (≈ 216 µg/mL)
PI3K p110 beta/p85 alpha
  Ki: 0.79 nM
[4]
  IC50: 5 nM
[5]
  microsomal CLint: 29 µL/min/mg
[6]
  Papp: 27 ×10⁻⁶ cm/s
[7]
  logD: 2.6
[8]
  IC50: 13 nM

## COC(=O)N1CC[C@](CO)(Nc2nc(N3CCOCC3)nc(-c3cnc(N)nc3)c2F)C1
[1]
  IC50: 360 nM
[9]
  Ki: < 0.018 nM
[2]
  Ki: < 0.28 nM
[3]
  solubility kinetic: 42 µM (≈ 18.8 µg/mL)
PI3K p110 beta/p85 alpha
  Ki: 5 nM
[4]
  IC50: 47 nM
[5]
  microsomal CLint: < 8 µL/min/mg
[6]
  Papp: 6.2 ×10⁻⁶ cm/s
[7]
  logD: 1.6
[8]
  IC50: 300 nM

## CC(C)(O)C(=O)N1CC[C@](C)(N2CCc3c(-c4cnc(N)nc4)nc(N4CCOCC4)nc32)C1
[1]
  IC50: 1000 nM
[9]
  Ki: 0.03 nM
[2]
  Ki: 6.7 nM
[3]
  solubility kinetic: 460 µM (≈ 216 µg/mL)
PI3K p110 beta/p85 alpha
  Ki: 46 nM
[4]
  IC50: 53 nM
[5]
  microsomal CLint: 16 µL/min/mg
[6]
  Papp: 25 ×10⁻⁶ cm/s
[7]
  logD: 2
[8]
  IC50: 150 nM

## COC(=O)N1CC[C@H](N2CCc3c(-c4cnc(N)nc4)nc(N4CCOCC4)nc32)C1
[2]
  Ki: 9.6 nM
[3]
  solubility kinetic: 56 µM (≈ 23.9 µg/mL)
PI3K p110 beta/p85 alpha
  Ki: 36 nM
[5]
  microsomal CLint: < 8 µL/min/mg
[6]
  Papp: 20 ×10⁻⁶ cm/s
[7]
  logD: 1.9

## Nc1ncc(-c2ccnc(N3CCOCC3)n2)cn1
[2]
  Ki: 81 nM
[3]
  solubility kinetic: 210 µM (≈ 54.2 µg/mL)
PI3K p110 beta/p85 alpha
  Ki: 15 nM
[6]
  Papp: 28 ×10⁻⁶ cm/s
[7]
  logD: 1.5

## CNC(=O)N1CC[C@H](N2CCc3c(-c4cnc(N)nc4)nc(N4CCOCC4)nc32)C1
[9]
  Ki: 0.58 nM
[2]
  Ki: 3.7 nM
[3]
  solubility kinetic: 390 µM (≈ 166 µg/mL)
PI3K p110 beta/p85 alpha
  Ki: 24 nM
[5]
  microsomal CLint: < 8 µL/min/mg
[6]
  Papp: 6.1 ×10⁻⁶ cm/s
[7]
  logD: 1.3

## Nc1ncc(-c2nc(N3CCOCC3)nc3c2CCN3[C@H]2CCNC2)cn1
[9]
  Ki: 2.1 nM
[2]
  Ki: 40 nM
[3]
  solubility kinetic: 430 µM (≈ 158 µg/mL)
PI3K p110 beta/p85 alpha
  Ki: 17 nM
[5]
  microsomal CLint: 13 µL/min/mg
[6]
  Papp: 1.9 ×10⁻⁶ cm/s
[7]
  logD: -0.74

## CC(C)(C)OC(=O)N1CC[C@](C)(Nc2cc(-c3cnc(N)nc3)nc(N3CCOCC3)n2)C1
[1]
  IC50: 5000 nM
[2]
  Ki: 5.1 nM
[3]
  solubility kinetic: 270 µM (≈ 123 µg/mL)
PI3K p110 beta/p85 alpha
  Ki: 68 nM
[4]
  IC50: 110 nM
[5]
  microsomal CLint: 110 µL/min/mg
[6]
  Papp: 11 ×10⁻⁶ cm/s
[7]
  logD: 3.8
[8]
  IC50: 460 nM

## CS(=O)(=O)N1CC[C@H](N2CCc3c(-c4cnc(N)nc4)nc(N4CCOCC4)nc32)C1
[9]
  Ki: 0.15 nM
[2]
  Ki: 4.5 nM
[3]
  solubility kinetic: 61 µM (≈ 27.2 µg/mL)
PI3K p110 beta/p85 alpha
  Ki: 16 nM
[5]
  microsomal CLint: < 8 µL/min/mg
[6]
  Papp: 18 ×10⁻⁶ cm/s
[7]
  logD: 1.3

## CC(C)C(=O)N1CC[C@](CO)(Nc2cc(-c3cnc(N)nc3)nc(N3CCOCC3)n2)C1
[1]
  IC50: > 10000 nM
[2]
  Ki: < 0.28 nM
[3]
  solubility kinetic: 540 µM (≈ 239 µg/mL)
PI3K p110 beta/p85 alpha
  Ki: 19 nM
[5]
  microsomal CLint: 17 µL/min/mg
[6]
  Papp: 0.19 ×10⁻⁶ cm/s
[7]
  logD: 1.4
[8]
  IC50: > 10000 nM

## CNS(=O)(=O)N1CC[C@](C)(N2CCc3c(-c4cnc(N)nc4)nc(N4CCOCC4)nc32)C1
[1]
  IC50: 170 nM
[9]
  Ki: < 0.018 nM
[2]
  Ki: < 0.28 nM
[3]
  solubility kinetic: 510 µM (≈ 243 µg/mL)
PI3K p110 beta/p85 alpha
  Ki: 4.9 nM
[4]
  IC50: 27 nM
[5]
  microsomal CLint: 20 µL/min/mg
[6]
  Papp: 24 ×10⁻⁶ cm/s
[7]
  logD: 1.9
[8]
  IC50: 44 nM

## COC(=O)N1CC[C@](CO)(Nc2cc(-c3cnc(N)nc3)nc(N3CCOCC3)n2)C1
[1]
  IC50: 1800 nM
[2]
  Ki: < 0.28 nM
[3]
  solubility kinetic: 19 µM (≈ 8.18 µg/mL)
PI3K p110 beta/p85 alpha
  Ki: 1.7 nM
[4]
  IC50: 91 nM
[5]
  microsomal CLint: 13 µL/min/mg
[6]
  Papp: 1 ×10⁻⁶ cm/s
[7]
  logD: 1.5
[8]
  IC50: 2300 nM

Reference: ChEMBL document CHEMBL4706640, “Structure-Based Drug Design and Synthesis of PI3Kα-Selective Inhibitor (PF-06843195)” (J Med Chem, 2021)
